Measurements from patent publication US9682995B2, “Amino-substituted isothiazoles” (BAYER PHARMA AKTIENGESELLSCHAFT, priority 2013, dated 2017).

Tests used:
Type in all cases: cell-based
HeLa-MaTu-ADR = experiment: Proliferation assay (crystal violet), HeLa-MaTu-ADR; settings: 96 h, 4 days, read-out: Inhibition of proliferation IC50 HeLa-MaTu-ADR
Method: (§1) Cultivated tumor cells (cells were ordered from ATCC, except HeLa-MaTu and HeLa-MaTu-ADR, which were ordered from EPO-GmbH, Berlin) were plated at a density of 1000 to 5000 cells/well, depending on the growth rate of the respective cell line, in a 96-well multititer plate in 200 μL of their respective growth medium supplemented 10% fetal calf serum. After 24 hours, the cells of one plate (zero-point plate) were stained with crystal violet (see below), while the medium of the other plates was replaced by fresh culture medium (200 μl), to which the test substances were added in various concentrations (0 μM, as well as in the range of 0.001-10 μM; the final concentration of the solvent dimethyl sulfoxide was 0.5%). The cells were incubated for 4 days in the presence of test substances. Cell proliferation was determined by staining the cells with crystal violet: the cells were fixed by adding 20 μl/measuring point of an 11% glutaric aldehyde solution for 15 minutes at room temperature. After three washing cycles of the fixed cells with water, the plates were dried at room temperature. The cells were stained by adding 100 μl/measuring point of a 0.1% crystal violet solution (pH 3.0). After three washing cycles of the stained cells with water, the plates were dried at room temperature. The dye was dissolved by adding 100 μl/measuring point of a 10% acetic acid solution. Absorption was determined by photometry at a wavelength of 595 nm. The change of cell number, in percent, was calculated by normalization of the measured values to the absorption values of the zero-point plate (=0%) and the absorption of the untreated (0 μm) cells (=100%). The IC50 values were determined by means of a 4 parameter fit.

NCI-H460 = experiment: Proliferation assay (crystal violet), NCI-H460; settings: Homo sapiens, 96 h; NCI-H460, 4 days; read-out: Inhibition of proliferation IC50 NCI-H460
Method: as §1

DU145 = experiment: Proliferation assay (crystal violet), DU145; settings: Homo sapiens, DU-145, 96 h; DU145, 4 days; read-out: Inhibition of proliferation IC50 DU145
Method: as §1

Caco2 = experiment: Proliferation assay (crystal violet), Caco2; settings: Homo sapiens, Caco-2, 96 h; Caco2, 4 days; read-out: Inhibition of proliferation IC50 Caco2
Method: as §1

B16F10 = experiment: Proliferation assay (crystal violet), B16F10; settings: Mus musculus, B16-F10, 96 h; B16F10, 4 days; read-out: Inhibition of proliferation IC50 B16F10
Method: as §1

SMILES | IC50 (HeLa-MaTu-ADR) [nM] | IC50 (NCI-H460) [nM] | IC50 (DU145) [nM] | IC50 (Caco2) [nM] | IC50 (B16F10) [nM]
CCc1ccccc1NC(=O)c1c(C)nsc1Nc1cnc2ccc(Cl)cc2n1 [Example 41, 5-[(7-Chloroquinoxalin-2-yl)amino]-N-(2-ethylphenyl)-3-methyl-1,2-thiazole-4-carboxamide] | 640 | 350 | 750 | 170 | 680
CCc1ccccc1NC(=O)c1c(C)nsc1Nc1nc(C)nc2ccccc12 [Example 35, N-(2-Ethylphenyl)-3-methyl-5-[(2-methylquinazolin-4-yl)amino]-1,2-thiazole-4-carboxamide] | 610 | 1600 | 2400 | 1600 | 1700
COc1ccc(NC(=O)c2c(C)nsc2Nc2cnc3cc(Cl)ccc3n2)cn1 [Example 23, 5-[(6-Chloroquinoxalin-2-yl)amino]-N-(6-methoxypyridin-3-yl)-3-methyl-1,2-thiazole-4-carboxamide] | 2700 | 2200 | 9400 | 2400 | 8400
Cc1nsc(Nc2cc(C#N)ccn2)c1C(=O)Nc1ccc(F)c(F)c1 [Example 27, 5-[(4-Cyanopyridin-2-yl)amino]-N-(3,4-difluorophenyl)-3-methyl-1,2-thiazole-4-carboxamide] | 240 | 220 | 350 | 450 | 220
COc1ccc(NC(=O)c2c(C)nsc2Nc2cnc3cccc(C)c3n2)cn1 [Example 22, N-(6-methoxypyridin-3-yl)-3-methyl-5-[(8-methylquinoxalin-2-yl)amino]-1,2-thiazole-4-carboxamide] | 760 | 790 | 2200 | 1600 | 950
CCc1ccccc1NC(=O)c1c(C)nsc1Nc1cnc2cccc(C)c2n1 [Example 33, N-(2-Ethylphenyl)-3-methyl-5-[(8-methylquinoxalin-2-yl)amino]-1,2-thiazole-4-carboxamide] | 850 | 1200 | 1300 | 740 | 1400
Cc1nsc(Nc2cnc3ccccc3n2)c1C(=O)Nc1ccc(Cl)c(F)c1 [Example 40, N-(4-Chloro-3-fluorophenyl)-3-methyl-5-(quinoxalin-2-ylamino)-1,2-thiazole-4-carboxamide] | 330 | 290 | 590 | 470 | 440
CCc1ccccc1NC(=O)c1c(C)nsc1Nc1ccnc(C#N)n1 [Example 6, 5-[(2-Cyanopyrimidin-4-yl)amino]-N-(2-ethylphenyl)-3-methyl-1,2-thiazole-4-carboxamide] | 1900 | 2100 | 3000 | 2300 | 2300
Cc1nsc(Nc2ccc(C#N)cn2)c1C(=O)Nc1ccc(F)c(F)c1 [Example 28, 5-[(5-Cyanopyridin-2-yl)amino]-N-(3,4-difluorophenyl)-3-methyl-1,2-thiazole-4-carboxamide] | 120 | 99 | 320 | 210 | 130
COc1ccc(NC(=O)c2c(C)nsc2Nc2cnc3c(F)c(F)ccc3n2)cn1 [Example 43, 5-[(5,6-Difluoroquinoxalin-2-yl)amino]-N-(6-methoxypyridin-3-yl)-3-methyl-1,2-thiazole-4-carboxamide] | 260 | 130 | 420 | 380 | 230
CCc1ccccc1NC(=O)c1c(C)nsc1Nc1cnc2ccccc2n1 [Example 19, N-(2-Ethylphenyl)-3-methyl-5-(quinoxalin-2-ylamino)-1,2-thiazole-4-carboxamide] | 410 | 1500 | 2500 | 970 | 1800

Second part, the compound after the results:

IC50 (HeLa-MaTu-ADR) [nM] | IC50 (NCI-H460) [nM] | IC50 (DU145) [nM] | IC50 (Caco2) [nM] | IC50 (B16F10) [nM] | SMILES
110 | 86 | 180 | 110 | 120 | Cc1nsc(Nc2cnc3cc(F)ccc3n2)c1C(=O)Nc1ccc(F)c(F)c1 [Example 46, N-(3,4-Difluorophenyl)-5-[(6-fluoroquinoxalin-2-yl)amino]-3-methyl-1,2-thiazole-4-carboxamide]
370 | 370 | 540 | 560 | 470 | Cc1nsc(Nc2cnccn2)c1C(=O)Nc1ccc(Cl)c(F)c1 [Example 56, N-(4-Chloro-3-fluorophenyl)-3-methyl-5-(pyrazin-2-ylamino)-1,2-thiazole-4-carboxamide]
130 | 130 | 310 | 190 | 230 | Cc1nsc(Nc2ccc(C#N)cn2)c1C(=O)Nc1ccc(Cl)c(F)c1 [Example 52, N-(4-Chloro-3-fluorophenyl)-5-[(5-cyanopyridin-2-yl)amino]-3-methyl-1,2-thiazole-4-carboxamide]
140 | 300 | 390 | 150 | 380 | CCOC(=O)c1cnn2ccc(Nc3snc(C)c3C(=O)Nc3ccc(F)c(F)c3)nc12 [Example 55, Ethyl 5-({4-[(3,4-difluorophenyl)carbamoyl]-3-methyl-1,2-thiazol-5-yl}amino)-pyrazolo[1,5-a]pyrimidine-3-carboxylate]
350 | 210 | 600 | 430 | 430 | COc1ccc(NC(=O)c2c(C)nsc2Nc2nc3c(C(F)(F)F)cccc3s2)cn1 [Example 48, N-(6-Methoxypyridin-3-yl)-3-methyl-5-{[4-(trifluoromethyl)-1,3-benzothiazol-2-yl]-amino}-1,2-thiazole-4-carboxamide]
650 | 210 | 1200 | 1300 | 860 | Cc1nsc(Nc2cc(C#N)ccn2)c1C(=O)Nc1ccc(Cl)c(F)c1 [Example 54, N-(4-Chloro-3-fluorophenyl)-5-[(4-cyanopyridin-2-yl)amino]-3-methyl-1,2-thiazole-4-carboxamide]
690 | 520 | 1300 | 980 | 1200 | Cc1nsc(Nc2cc(C#N)ccn2)c1C(=O)Nc1ccc(Oc2ccc(F)cc2F)nc1 [Example 114, 5-[(4-Cyanopyridin-2-yl)amino]-N-[6-(2,4-difluorophenoxy)pyridin-3-yl]-3-methyl-1,2-thiazole-4-carboxamide]
300 | 100 | 460 | 380 | 190 | COc1ccc(NC(=O)c2c(C)nsc2Nc2cnc3cc(C(F)(F)F)ccc3n2)cn1 [Example 45, N-(6-Methoxypyridin-3-yl)-3-methyl-5-{[6-(trifluoromethyl)quinoxalin-2-yl]amino}-1,2-thiazole-4-carboxamide]
310 | 520 | 980 | 200 | 220 | Cc1nsc(Nc2nc3c(C(F)(F)F)cccc3s2)c1C(=O)Nc1ccc(Cl)c(F)c1 [Example 53, N-(4-Chloro-3-fluorophenyl)-3-methyl-5-{[4-(trifluoromethyl)-1,3-benzothiazol-2-yl]amino}-1,2-thiazole-4-carboxamide]
83 | 180 | 49 | 360 | 110 | COc1ccc(NC(=O)c2c(C)nsc2Nc2nc3c(C(F)(F)F)cccc3s2)cc1F [Example 47, N-(3-Fluoro-4-methoxyphenyl)-3-methyl-5-{[4-(trifluoromethyl)-1,3-benzothiazol-2-yl]amino}-1,2-thiazole-4-carboxamide]
370 | 280 | 160 | 69 | 470 | Cc1nsc(Nc2nc3c(C(F)(F)F)cccc3s2)c1C(=O)Nc1ccc(F)c(F)c1 [Example 51, N-(3,4-Difluorophenyl)-3-methyl-5-{[4-(trifluoromethyl)-1,3-benzothiazol-2-yl]-amino}-1,2-thiazole-4-carboxamide]
210 | 520 | 410 | 270 | 300 | Cc1nsc(Nc2cnc3ccccc3n2)c1C(=O)Nc1ccc(F)c(F)c1 [Example 50, N-(3,4-Difluorophenyl)-3-methyl-5-(quinoxalin-2-ylamino)-1,2-thiazole-4-carboxamide]
